According to ChEMBL document CHEMBL5260810, “Inhibition of bromodomain-containing protein 9 for the prevention of epigenetically-defined drug resistance” (Bioorg Med Chem Lett, 2017):

System: not listed separately
Test: Cytotoxicity against human NCE-G 111 cells measured after 8 days
Assay type: functional, cell-based
Details: NCE-G 111, 192 h
In the case of `C/C=C/Cn1cc(-c2ccc(C(C)(C)O)cc2OC)c2cc[nH]c2c1=O`, the IC50 is reported as 20 µM.

System: WSUDLCL2
Test: Cytotoxicity against human WSUDLCL2 cells measured after 8 days
Assay type: functional, cell-based
Details: WSUDLCL2, 192 h
Work on `C/C=C/Cn1cc(-c2ccc(C(C)(C)O)cc2OC)c2cc[nH]c2c1=O` yielded an IC50 of 7.32 µM.

System: JIMT-1
Test: Cytotoxicity against human JIMT-1 cells measured after 8 days
Assay type: functional, cell-based
Details: JIMT-1, 192 h
Work on `C/C=C/Cn1cc(-c2ccc(C(C)(C)O)cc2OC)c2cc[nH]c2c1=O` yielded an IC50 of 20 µM.

System: DLD-1
Test: Cytotoxicity against human DLD-1 cells measured after 8 days
Assay type: functional, cell-based
Details: DLD-1, 192 h
`C/C=C/Cn1cc(-c2ccc(C(C)(C)O)cc2OC)c2cc[nH]c2c1=O` showed an IC50 of 20 µM.

System: not listed separately
Test: Cytotoxicity against human NCI-H2803 cells measured after 8 days
Assay type: functional, cell-based
Details: NCI-H2803, 192 h
In the case of `C/C=C/Cn1cc(-c2ccc(C(C)(C)O)cc2OC)c2cc[nH]c2c1=O`, the IC50 is reported as 20 µM.

System: NCI-H460
Test: Cytotoxicity against human NCI-H460 cells measured after 8 days
Assay type: functional, cell-based
Details: NCI-H460, 192 h
With `C/C=C/Cn1cc(-c2ccc(C(C)(C)O)cc2OC)c2cc[nH]c2c1=O` the IC50 was 20 µM.

Target: T1, Bromodomain-containing protein 2 (Homo sapiens, UniProt P25440)
T1 sequence (P25440 whole entry, the tested form may be a part, canonical isoform): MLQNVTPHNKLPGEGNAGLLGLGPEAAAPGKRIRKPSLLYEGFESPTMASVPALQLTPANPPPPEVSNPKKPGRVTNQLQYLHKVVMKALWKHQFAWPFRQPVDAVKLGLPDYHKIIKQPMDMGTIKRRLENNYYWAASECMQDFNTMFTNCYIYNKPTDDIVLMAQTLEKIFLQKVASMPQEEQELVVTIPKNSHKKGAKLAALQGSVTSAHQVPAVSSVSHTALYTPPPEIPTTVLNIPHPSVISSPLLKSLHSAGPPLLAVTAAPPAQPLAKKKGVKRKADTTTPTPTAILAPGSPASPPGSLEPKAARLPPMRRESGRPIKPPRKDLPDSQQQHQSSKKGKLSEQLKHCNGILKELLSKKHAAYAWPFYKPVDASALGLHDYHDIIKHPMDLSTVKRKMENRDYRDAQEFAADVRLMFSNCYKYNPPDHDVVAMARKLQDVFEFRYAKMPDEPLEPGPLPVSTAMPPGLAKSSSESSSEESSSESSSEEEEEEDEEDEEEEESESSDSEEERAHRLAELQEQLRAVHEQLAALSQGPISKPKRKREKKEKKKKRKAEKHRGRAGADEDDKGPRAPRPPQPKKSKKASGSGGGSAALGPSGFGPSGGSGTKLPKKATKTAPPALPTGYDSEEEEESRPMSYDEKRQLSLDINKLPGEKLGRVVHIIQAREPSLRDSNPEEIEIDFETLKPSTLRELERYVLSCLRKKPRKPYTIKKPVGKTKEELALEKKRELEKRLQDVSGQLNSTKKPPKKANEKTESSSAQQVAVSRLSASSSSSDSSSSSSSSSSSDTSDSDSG
Test: Binding affinity to human partial length BRD2 bromodomain 2 isoform 1 (E348 to D455 residues) expressed in bacterial expression system by BROMOscan assay
Details: not given
In the case of `C/C=C/Cn1cc(-c2ccc(C(C)(C)O)cc2OC)c2cc[nH]c2c1=O`, the Kd is reported as 3.3 µM.

Target: T1, Bromodomain-containing protein 2
Test: Binding affinity to human partial length BRD2 bromodomain 1 long isoform (K71 to N194 residues) expressed in bacterial expression system by BROMOscan assay
Details: not given
For `C/C=C/Cn1cc(-c2ccc(C(C)(C)O)cc2OC)c2cc[nH]c2c1=O`, the Kd was 2.7 µM.

System: EB-3
Test: Cytotoxicity against human EB-3 cells measured after 8 days
Assay type: functional, cell-based
Details: EB-3, 192 h
`C/C=C/Cn1cc(-c2ccc(C(C)(C)O)cc2OC)c2cc[nH]c2c1=O` gave an IC50 of 20 µM.

Target: Bromodomain-containing protein 8 (Homo sapiens, UniProt Q9H0E9)
Test: Binding affinity to BRD8 bromodomain 2 (unknown origin) by BROMOscan assay
Details: not given
With `C/C=C/Cn1cc(-c2ccc(C(C)(C)O)cc2OC)c2cc[nH]c2c1=O` the Kd was > 10 µM.

Target: Transcription initiation factor TFIID subunit 1-like (Homo sapiens, UniProt Q8IZX4)
Sequence (Q8IZX4 whole entry, the tested form may be a part): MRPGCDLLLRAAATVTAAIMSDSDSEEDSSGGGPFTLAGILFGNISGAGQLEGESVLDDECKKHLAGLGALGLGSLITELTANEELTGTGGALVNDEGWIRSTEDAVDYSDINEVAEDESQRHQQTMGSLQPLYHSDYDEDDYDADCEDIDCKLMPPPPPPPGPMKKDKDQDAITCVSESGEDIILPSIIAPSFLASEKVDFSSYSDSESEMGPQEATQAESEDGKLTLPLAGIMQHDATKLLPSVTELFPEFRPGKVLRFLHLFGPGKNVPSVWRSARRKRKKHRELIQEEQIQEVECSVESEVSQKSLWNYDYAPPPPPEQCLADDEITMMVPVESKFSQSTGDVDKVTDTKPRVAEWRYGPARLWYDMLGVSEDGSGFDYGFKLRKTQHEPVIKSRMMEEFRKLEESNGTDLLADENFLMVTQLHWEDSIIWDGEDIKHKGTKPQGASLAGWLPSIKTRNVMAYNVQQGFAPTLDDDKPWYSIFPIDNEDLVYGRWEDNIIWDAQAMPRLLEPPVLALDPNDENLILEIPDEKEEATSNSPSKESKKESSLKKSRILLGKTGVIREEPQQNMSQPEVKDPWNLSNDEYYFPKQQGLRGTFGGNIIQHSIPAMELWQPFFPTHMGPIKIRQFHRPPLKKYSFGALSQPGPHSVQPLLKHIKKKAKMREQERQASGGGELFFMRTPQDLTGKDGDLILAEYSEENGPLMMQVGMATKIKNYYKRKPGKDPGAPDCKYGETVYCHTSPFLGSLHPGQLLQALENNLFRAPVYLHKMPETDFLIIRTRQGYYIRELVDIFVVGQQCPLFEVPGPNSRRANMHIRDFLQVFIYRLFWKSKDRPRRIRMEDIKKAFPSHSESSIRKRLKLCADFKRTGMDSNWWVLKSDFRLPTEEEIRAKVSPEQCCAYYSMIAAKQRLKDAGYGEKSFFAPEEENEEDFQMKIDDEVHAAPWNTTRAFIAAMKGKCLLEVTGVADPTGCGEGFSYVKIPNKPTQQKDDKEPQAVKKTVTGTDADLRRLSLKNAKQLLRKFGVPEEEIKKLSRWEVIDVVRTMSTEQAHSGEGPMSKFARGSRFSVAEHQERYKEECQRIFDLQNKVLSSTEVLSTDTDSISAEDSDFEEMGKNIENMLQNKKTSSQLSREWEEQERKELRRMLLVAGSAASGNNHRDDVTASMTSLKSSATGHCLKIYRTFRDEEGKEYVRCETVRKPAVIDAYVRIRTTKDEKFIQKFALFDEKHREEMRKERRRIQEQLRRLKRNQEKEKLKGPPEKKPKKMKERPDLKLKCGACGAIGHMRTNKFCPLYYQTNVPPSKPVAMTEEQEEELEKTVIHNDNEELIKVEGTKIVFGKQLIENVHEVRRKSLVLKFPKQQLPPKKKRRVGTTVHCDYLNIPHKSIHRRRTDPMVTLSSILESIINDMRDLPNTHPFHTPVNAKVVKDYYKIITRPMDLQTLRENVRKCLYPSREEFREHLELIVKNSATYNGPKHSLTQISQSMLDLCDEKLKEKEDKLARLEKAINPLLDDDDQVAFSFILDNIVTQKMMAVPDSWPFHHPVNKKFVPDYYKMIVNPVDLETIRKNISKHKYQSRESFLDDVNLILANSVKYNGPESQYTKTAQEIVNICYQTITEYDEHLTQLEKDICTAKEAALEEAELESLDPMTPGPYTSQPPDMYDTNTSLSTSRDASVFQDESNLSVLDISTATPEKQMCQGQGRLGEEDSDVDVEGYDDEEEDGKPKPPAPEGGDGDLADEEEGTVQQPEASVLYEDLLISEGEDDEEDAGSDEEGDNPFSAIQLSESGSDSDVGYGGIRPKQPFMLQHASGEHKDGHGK
Test: Binding affinity to human partial length TAF1L bromodomain 2 (Q1523 to D1654 residues) expressed in bacterial expression system by BROMOscan assay
Details: not given
For `C/C=C/Cn1cc(-c2ccc(C(C)(C)O)cc2OC)c2cc[nH]c2c1=O`, the Kd was > 10 µM.

System: NCI-H23
Test: Cytotoxicity against human NCI-H23 cells measured after 8 days
Assay type: functional, cell-based
Details: NCI-H23, 192 h
`C/C=C/Cn1cc(-c2ccc(C(C)(C)O)cc2OC)c2cc[nH]c2c1=O` gave an IC50 of 20 µM.

Target: Beta-2 adrenergic receptor (Homo sapiens) (UniProt P07550)
Test: Displacement of [3H](-)CGP 12177 from human recombinant beta2 adrenoceptor at 10 uM after 120 mins by scintillation counting analysis relative to control
Details: not given
For `C/C=C/Cn1cc(-c2ccc(C(C)(C)O)cc2OC)c2cc[nH]c2c1=O`, the Activity was 5%.

System: Ramos
Test: Cytotoxicity against human Ramos cells measured after 8 days
Assay type: functional, cell-based
Details: 192 h
In the case of `C/C=C/Cn1cc(-c2ccc(C(C)(C)O)cc2OC)c2cc[nH]c2c1=O`, the IC50 is reported as 20 µM.

System: MHH-PREB-1
Test: Cytotoxicity against human MHH-PREB-1 cells measured after 8 days
Assay type: functional, cell-based
Details: MHH-PREB-1, 192 h
Compound `C/C=C/Cn1cc(-c2ccc(C(C)(C)O)cc2OC)c2cc[nH]c2c1=O` has an IC50 of 20 µM.

System: COLO-741
Test: Cytotoxicity against human COLO-741 cells measured after 8 days
Assay type: functional, cell-based
Details: COLO-741, 192 h
`C/C=C/Cn1cc(-c2ccc(C(C)(C)O)cc2OC)c2cc[nH]c2c1=O` gave an IC50 of 20 µM.

Target: Dual specificity protein kinase CLK2 (Homo sapiens) (UniProt P49760)
Sequence (P49760 whole entry, looked up): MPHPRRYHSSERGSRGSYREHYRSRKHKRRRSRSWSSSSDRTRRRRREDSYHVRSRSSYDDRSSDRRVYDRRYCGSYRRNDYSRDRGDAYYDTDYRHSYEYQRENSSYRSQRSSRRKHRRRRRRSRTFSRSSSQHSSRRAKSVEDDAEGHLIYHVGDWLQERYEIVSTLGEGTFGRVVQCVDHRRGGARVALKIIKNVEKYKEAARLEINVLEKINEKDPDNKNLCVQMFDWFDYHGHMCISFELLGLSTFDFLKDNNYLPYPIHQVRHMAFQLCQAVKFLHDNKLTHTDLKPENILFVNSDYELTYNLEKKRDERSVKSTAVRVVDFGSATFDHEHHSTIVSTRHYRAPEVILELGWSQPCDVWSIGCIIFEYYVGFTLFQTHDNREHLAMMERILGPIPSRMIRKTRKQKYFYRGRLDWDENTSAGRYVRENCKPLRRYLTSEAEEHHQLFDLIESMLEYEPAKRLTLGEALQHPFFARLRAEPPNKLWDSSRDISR
Test: Inhibition of CLK2 (unknown origin) at 1 uM relative to control
Details: not given
With `C/C=C/Cn1cc(-c2ccc(C(C)(C)O)cc2OC)c2cc[nH]c2c1=O` the inhibition was 8%.

System: U-937
Test: Cytotoxicity against human U-937 cells measured after 8 days
Assay type: functional, cell-based
Details: U-937, 192 h
`C/C=C/Cn1cc(-c2ccc(C(C)(C)O)cc2OC)c2cc[nH]c2c1=O` showed an IC50 of 20 µM.

Target: Serine/threonine-protein kinase 24 (Homo sapiens) (UniProt Q9Y6E0)
Sequence (Q9Y6E0 whole entry, looked up): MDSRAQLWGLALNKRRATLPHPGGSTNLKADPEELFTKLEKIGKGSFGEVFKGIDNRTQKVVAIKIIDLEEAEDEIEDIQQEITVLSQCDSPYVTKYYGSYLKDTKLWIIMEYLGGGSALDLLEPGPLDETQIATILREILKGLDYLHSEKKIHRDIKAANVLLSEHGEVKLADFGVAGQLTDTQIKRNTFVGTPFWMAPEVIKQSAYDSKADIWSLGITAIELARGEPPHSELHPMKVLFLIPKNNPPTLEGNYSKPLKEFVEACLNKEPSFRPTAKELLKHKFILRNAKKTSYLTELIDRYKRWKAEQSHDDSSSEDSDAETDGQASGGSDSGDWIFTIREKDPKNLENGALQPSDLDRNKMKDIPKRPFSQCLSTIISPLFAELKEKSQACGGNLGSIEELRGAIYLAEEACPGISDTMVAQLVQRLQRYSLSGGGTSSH
Test: Inhibition of MST3 (unknown origin) at 1 uM relative to control
Details: not given
`C/C=C/Cn1cc(-c2ccc(C(C)(C)O)cc2OC)c2cc[nH]c2c1=O` gave an inhibition of 6%.

System: not listed separately
Test: Cytotoxicity against human PL-21 cells measured after 8 days
Assay type: functional, cell-based
Details: PL-21, 192 h
In the case of `C/C=C/Cn1cc(-c2ccc(C(C)(C)O)cc2OC)c2cc[nH]c2c1=O`, the IC50 is reported as 20 µM.

System: Hs-578T
Test: Cytotoxicity against human Hs-578T cells measured after 8 days
Assay type: functional, cell-based
Details: 192 h
Compound `C/C=C/Cn1cc(-c2ccc(C(C)(C)O)cc2OC)c2cc[nH]c2c1=O` has an IC50 of 20 µM.

System: UACC-62
Test: Cytotoxicity against human UACC-62 cells measured after 8 days
Assay type: functional, cell-based
Details: UACC-62, 192 h
Work on `C/C=C/Cn1cc(-c2ccc(C(C)(C)O)cc2OC)c2cc[nH]c2c1=O` yielded an IC50 of 20 µM.

Target: Histamine H2 receptor (Homo sapiens) (UniProt P25021)
Sequence (P25021 whole entry): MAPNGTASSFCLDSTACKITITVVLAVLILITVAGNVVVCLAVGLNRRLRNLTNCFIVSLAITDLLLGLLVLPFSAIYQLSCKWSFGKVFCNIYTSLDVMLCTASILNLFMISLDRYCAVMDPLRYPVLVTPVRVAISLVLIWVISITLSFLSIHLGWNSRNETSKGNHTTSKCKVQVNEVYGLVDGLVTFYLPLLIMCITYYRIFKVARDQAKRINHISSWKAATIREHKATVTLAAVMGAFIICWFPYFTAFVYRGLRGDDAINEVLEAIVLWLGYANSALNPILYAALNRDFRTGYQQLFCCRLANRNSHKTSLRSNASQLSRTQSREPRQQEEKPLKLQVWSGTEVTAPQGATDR
Test: Displacement of [125I]APT from human recombinant histamine H2 receptor at 10 uM after 120 mins by scintillation counting analysis relative to control
Details: not given
For `C/C=C/Cn1cc(-c2ccc(C(C)(C)O)cc2OC)c2cc[nH]c2c1=O`, the Activity was 1%.

Target: Kappa-type opioid receptor (Homo sapiens) (UniProt P41145)
Sequence (P41145 whole entry): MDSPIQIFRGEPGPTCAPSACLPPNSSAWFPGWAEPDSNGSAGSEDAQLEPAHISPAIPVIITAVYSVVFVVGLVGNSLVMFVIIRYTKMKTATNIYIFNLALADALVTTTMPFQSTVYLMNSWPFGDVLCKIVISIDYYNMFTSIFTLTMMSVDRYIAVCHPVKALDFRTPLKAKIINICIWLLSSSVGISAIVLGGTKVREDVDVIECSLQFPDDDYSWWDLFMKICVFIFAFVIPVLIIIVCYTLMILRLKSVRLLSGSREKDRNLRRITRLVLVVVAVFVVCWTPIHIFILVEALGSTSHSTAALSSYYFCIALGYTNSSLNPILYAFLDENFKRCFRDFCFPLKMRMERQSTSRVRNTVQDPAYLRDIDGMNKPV
Test: Displacement of [3H]U69593 from human kappa receptor at 10 uM after 60 mins by scintillation counting analysis relative to control
Details: not given
`C/C=C/Cn1cc(-c2ccc(C(C)(C)O)cc2OC)c2cc[nH]c2c1=O` gave an Activity of -1%.

System: MDA-MB-231
Test: Cytotoxicity against human MDA-MB-231 cells measured after 8 days
Assay type: functional, cell-based
Details: MDA-MB-231, 192 h
In the case of `C/C=C/Cn1cc(-c2ccc(C(C)(C)O)cc2OC)c2cc[nH]c2c1=O`, the IC50 is reported as 20 µM.

System: not listed separately
Test: Cytotoxicity against human HT115 cells measured after 8 days
Assay type: functional, cell-based
Details: HT115, 192 h
For `C/C=C/Cn1cc(-c2ccc(C(C)(C)O)cc2OC)c2cc[nH]c2c1=O`, the IC50 was 20 µM.

System: not listed separately
Test: Cytotoxicity against human WSU-FSCCL cells measured after 8 days
Assay type: functional, cell-based
Details: 192 h
In the case of `C/C=C/Cn1cc(-c2ccc(C(C)(C)O)cc2OC)c2cc[nH]c2c1=O`, the IC50 is reported as 13.5 µM.

Target: Proto-oncogene tyrosine-protein kinase receptor Ret (Homo sapiens) (UniProt P07949)
Test: Inhibition of Ret (unknown origin) at 1 uM relative to control
Details: not given
With `C/C=C/Cn1cc(-c2ccc(C(C)(C)O)cc2OC)c2cc[nH]c2c1=O` the inhibition was 2%.

Target: D(1A) dopamine receptor (Homo sapiens) (UniProt P21728)
Test: Displacement of [3H]-SCH 23390 from human recombinant dopamine D1 receptor at 10 uM by scintillation counting 60 mins analysis relative to control
Details: not given
`C/C=C/Cn1cc(-c2ccc(C(C)(C)O)cc2OC)c2cc[nH]c2c1=O` gave an Activity of 0%.

Target: Proto-oncogene tyrosine-protein kinase Src (Homo sapiens) (UniProt P12931)
Sequence (P12931 2-536 limits assumed): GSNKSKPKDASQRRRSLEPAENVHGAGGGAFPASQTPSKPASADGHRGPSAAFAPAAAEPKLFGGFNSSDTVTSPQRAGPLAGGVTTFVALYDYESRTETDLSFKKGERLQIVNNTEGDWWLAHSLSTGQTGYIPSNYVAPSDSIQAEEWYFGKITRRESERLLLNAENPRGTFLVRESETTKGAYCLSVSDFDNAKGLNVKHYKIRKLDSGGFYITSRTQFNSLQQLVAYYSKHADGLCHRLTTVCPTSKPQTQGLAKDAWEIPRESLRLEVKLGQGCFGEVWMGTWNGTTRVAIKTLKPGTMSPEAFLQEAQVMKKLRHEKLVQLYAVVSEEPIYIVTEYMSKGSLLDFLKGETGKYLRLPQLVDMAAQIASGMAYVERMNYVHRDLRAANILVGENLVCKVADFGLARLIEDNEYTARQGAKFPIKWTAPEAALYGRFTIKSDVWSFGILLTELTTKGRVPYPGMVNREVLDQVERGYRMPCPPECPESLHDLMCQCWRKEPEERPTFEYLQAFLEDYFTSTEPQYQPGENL
Test: Inhibition of Src (unknown origin) at 1 uM relative to control
Details: not given
`C/C=C/Cn1cc(-c2ccc(C(C)(C)O)cc2OC)c2cc[nH]c2c1=O` showed an inhibition of 4.5%.

System: NCI-H441
Test: Cytotoxicity against human NCI-H441 cells measured after 8 days
Assay type: functional, cell-based
Details: NCI-H441, 192 h
`C/C=C/Cn1cc(-c2ccc(C(C)(C)O)cc2OC)c2cc[nH]c2c1=O` gave an IC50 of 20 µM.

System: EPLC-272H
Test: Cytotoxicity against human EPLC-272H cells measured after 8 days
Assay type: functional, cell-based
Details: 192 h
For `C/C=C/Cn1cc(-c2ccc(C(C)(C)O)cc2OC)c2cc[nH]c2c1=O`, the IC50 was 20 µM.

Target: T2, Peroxisome proliferator-activated receptor gamma (Homo sapiens) (UniProt P37231)
T2 sequence (whole entry): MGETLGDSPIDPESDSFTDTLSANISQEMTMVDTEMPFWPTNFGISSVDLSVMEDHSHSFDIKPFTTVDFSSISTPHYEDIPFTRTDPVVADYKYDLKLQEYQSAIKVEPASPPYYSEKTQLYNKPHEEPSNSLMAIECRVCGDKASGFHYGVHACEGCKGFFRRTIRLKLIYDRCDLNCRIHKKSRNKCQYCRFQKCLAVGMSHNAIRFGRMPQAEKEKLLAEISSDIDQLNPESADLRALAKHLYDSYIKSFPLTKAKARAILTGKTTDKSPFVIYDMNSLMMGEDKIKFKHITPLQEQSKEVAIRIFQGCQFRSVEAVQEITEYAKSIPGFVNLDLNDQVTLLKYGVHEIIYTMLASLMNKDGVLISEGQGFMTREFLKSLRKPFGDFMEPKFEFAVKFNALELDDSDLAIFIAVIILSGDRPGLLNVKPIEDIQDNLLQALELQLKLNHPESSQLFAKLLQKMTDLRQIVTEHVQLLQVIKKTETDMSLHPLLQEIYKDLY
Test: Inhibition of human PPARgamma at 10 uM relative to control
Details: not given
`C/C=C/Cn1cc(-c2ccc(C(C)(C)O)cc2OC)c2cc[nH]c2c1=O` showed an inhibition of 18%.

Target: Bromodomain-containing protein 4 (Homo sapiens, UniProt O60885)
Test: Displacement of biotinylated small-molecule ligand from recombinant His-tagged BRD4 bromodomain 1 (unknown origin) measured after 10 mins by TR-FRET assay
Details: not given
For `C/C=C/Cn1cc(-c2ccc(C(C)(C)O)cc2OC)c2cc[nH]c2c1=O`, the IC50 was 5.1 µM.

System: HCC78
Test: Cytotoxicity against human HCC78 cells measured after 8 days
Assay type: functional, cell-based
Details: HCC78, 192 h
`C/C=C/Cn1cc(-c2ccc(C(C)(C)O)cc2OC)c2cc[nH]c2c1=O` gave an IC50 of 20 µM.

System: NCI-H2347
Test: Cytotoxicity against human NCI-H2347 cells measured after 8 days
Assay type: functional, cell-based
Details: NCI-H2347, 192 h
Compound `C/C=C/Cn1cc(-c2ccc(C(C)(C)O)cc2OC)c2cc[nH]c2c1=O` has an IC50 of 20 µM.

Target: Bromodomain-containing protein 3 (Homo sapiens, UniProt Q15059)
Test: Binding affinity to BRD3 bromodomain 1/2 (unknown origin) by BROMOscan assay
Details: not given
Compound `C/C=C/Cn1cc(-c2ccc(C(C)(C)O)cc2OC)c2cc[nH]c2c1=O` has a Kd of 5.5 µM.
